Assay results taken from patent US8461183B2, “PPAR agonist compounds, preparation and uses” (Genfit, priority 2008, dated 2013).

Tests used:
[1] = tested on: 3T3-L1 murine pre-adipocytes; test: PPARγ functional effect: adipogenesis in 3T3-L1 pre-adipocytes (triglycerides, adiponectin); assay type: cell-based, Mus musculus; conditions: 3T3-L1, 9 days of treatment, 30 nM to 30 μM
Experimental: The functional effect of activation of PPARγ is evaluated in vitro on a line of pre-adipocyte cells 3T3-L1 (Thompson G M et al., 2004) by measuring the concentration of intracellular triglycerides and the concentration of adiponectin secreted in the culture medium after 9 days of treatment with the compounds according to the invention.
At confluence, the cells were then rinsed with PBS (Phosphate Buffered Saline solution) and the culture medium was replaced with DMEM 4.5 g/L glucose (10% FCS, 1% L-glutamine, 100 units/mL penicillin and 100 μg/mL streptomycin, 0.25 mM) containing a cocktail for initiation of adipocyte differentiation (IBMX (3-isobutyl-1-methylxanthine Sigma; 17018), 0.1 μM dexamethasone (Sigma; D1756) and 0.4 μM of insulin (Sigma; I2643). The cells were also treated with the compounds according to the invention (1 μL of solubilized compound/mL of medium, 200 μL per well).
After 2 days of incubation, the cells were washed with PBS and the differentiation medium was replaced with DMEM 4.5 g/L of glucose supplemented with 10% FCS, 1% L-glutamine, 100 units/mL penicillin and 100 μg/mL streptomycin, 0.4 μM insulin, and the compounds according to the invention for the purpose of completing cellular differentiation and obtaining adipocytes. The medium was changed every 2 days until total differentiation. After culture for 9 days, the treatment was stopped by withdrawing the culture medium, which was stored for assaying secreted adiponectin. The cells were then washed twice with PBS and placed in isopropanol for membrane permeabilization. The content of intracellular triglycerides was evaluated immediately.
Quantification of intracellular triglycerides was performed with the “Triglyceride Enzymatic PAP1000” kit (bioMérieux; 61238) according to the supplier's recommendations. Secreted adiponectin was measured in the culture medium using the “Mouse Adiponectin/Acrp30 Elisa Kit” kit (R&D Systems; DY1119) according to the supplier's recommendations.

db/db mouse [2] = test: Glucose tolerance test in the db/db mouse; assay type: in vivo; conditions: 30 mpk, treated 9 days, oral glucose 1 g/kg after fasting
Experimental: (§1) The aim of this study is to evaluate in vivo the antidiabetic character of the compounds according to the invention, in the db/db mouse (Berger J et al., 1996). The antidiabetic effect of the compounds is evaluated by measuring glycemia and insulinemia after 8 days of treatment. In diabetic animals (as in humans), administration of glucose leads to a significant increase in the plasma level of insulin. This induced hyperinsulinemia causes a lowering of glycemia, which is delayed in insulin-resistant animals, for example in the db/db mouse.
After 9 days, the animals were deprived of food for 16 hours before carrying out the glucose tolerance test. The latter consists of a single administration of glucose after fasting (administered orally at a dose of 1 g/kg). Blood samples were then taken from time to time to study the evolution of plasma glycemia.
(§2) Glucose was determined by enzyme assays (bioMérieux-Lyons-France) according to the suppliers recommendations.

[3] = tested on: PPARδ target genes (PDK4, CPT1b, UCP2) in murine myocytes; test: Expression of PPARδ target genes in murine myocytes (differentiated C2C12 cells); assay type: cell-based; conditions: 24 hours, Cpd 7 at 0.1, 1, 10 μM, Cpd 24 at 0.2, 2, 20 μM, normalized to 36B4
Experimental: The PPARδ agonist properties previously measured in vitro were evaluated by measuring, in murine myocytes, the expression of genes involved in lipid and carbohydrate metabolism and energy expenditure (PDK4, CPT1b, UCP2). Regulation of expression of these genes, in this cell type, is a direct consequence of the activation of PPARδ by the compounds according to the invention. The greater the increase in expression of the genes, the more the compound according to the invention is a stimulator of metabolism in muscle cells (Dressel U et al., 2003).
The C2C12 murine cells (from ECACC) are cultivated in DMEM medium (Gibco; 41965-039) supplemented with 1% L-glutamine (Gibco; 25030), 1% penicillin/streptomycin (VWR; BWSTL0022/100) and 10% decomplemented fetal calf serum (FCS. Gibco; 10270-106).
The cells are seeded in 24-well plates at a density of 50×10^3 cells/well. At confluence, the medium is replaced with a differentiation medium (base culture medium supplemented with 2% of horse serum (Gibco; 26050-088)) then culture is continued at 37° C. and 5% CO2 for 7 days in order to permit differentiation of the myoblasts into myocytes.
After 6 days of differentiation, the cells are put in a deprivation medium (base culture medium without serum) for 6 hours. The cells are then treated with the compounds according to the invention in the deprivation medium. The compounds according to the invention were tested at doses of 0.1, 1, 10 μM and 0.2, 2 and 20 μM respectively. The compounds according to the invention were dissolved in dimethylsulfoxide (DMSO, Sigma; D5879). The cells are treated for 24 hours at 37° C., 5% CO2. The effects for the compounds tested were compared with the effect of DMSO alone at a concentration of 0.1%.
These procedures were performed on the cells essentially as described in Example 10 (point c) of the Protocols.
The following primer pairs specific to the genes investigated were used: […]

db/db mouse [4] = test: Antidiabetic character in the db/db mouse: plasma glycemia, insulinemia, HOMA index; assay type: in vivo; conditions: 30 mpk oral, 8 days
Experimental: as §1
Male db/db mice (CERJ—Le Genest St Isle-France) are used for this experiment. After acclimation for one week, the mice were weighed and put into groups of 8 animals, selected in such a way that the distribution of their bodyweight and of their fasting glycemia determined for the first time before the experiment are uniform. The compound tested was suspended in carboxymethylcellulose (Sigma C4888) and administered by stomach tube, at a rate of once a day for 9 days at the chosen dose. The animals had free access to water and food (standard diet) and were housed in ventilated cages with a rhythm of light and darkness of 12 hours/12 hours at a constant temperature of 20±3° C. The food intake and weight gain were recorded throughout the experiment. After administration of the compound for 8 days, a blood sample was taken by puncture in the retro-orbital sinus of the animals under volatile anesthesia with isoflurane in order to measure the plasma concentrations of glucose and insulin.
Assay of murine insulin is carried out by the Elisa method (Insulin Elisa Kit-Crystal Chem. USA). A mouse anti-insulin antibody is fixed on a microplate. The serum to be assayed for insulin is then deposited on this plate. A guinea pig anti-insulin antibody will recognize the insulin/mouse monoclonal anti-insulin antibody complex and bind to it. […]
as §2

SMILES	accumulation of triglycerides in adipocytes [1]	secretion of adiponectin [1]	glucose tolerance test (insulin resistance) (db/db mouse [2])	expression of CPT1b [3]	expression of PDK4 [3]	expression of UCP2 [3]	glycemic profile (plasma glucose) (db/db mouse [4])	insulinemic profile (plasma insulin) (db/db mouse [4])	HOMA index (db/db mouse [4]; calculated from plasma glucose and insulin)
COc1nc(-c2ccc(C(F)(F)F)cc2)ccc1COc1ccc(OCC(=O)O)cc1 [Cpd 24, 2-(4-((2-methoxy-6-(4-(trifluoromethyl)phenyl)pyridin-3-yl)methoxy)-phenoxy)ethanoic acid]	dose-dependent stimulation	dose-dependent stimulation	marked decrease in insulin resistance	significant effects of stimulating expression	significant effects of stimulating expression	significant effects of stimulating expression	overall improvement	overall improvement	decrease
COc1nc(-c2ccccc2)ccc1CNc1ccc(CCC(=O)O)cc1 [Cpd 19, 3-(4-(((2-methoxy-6-phenylpyridin-3-yl)methyl)amino)phenyl)propanoic acid]	dose-dependent stimulation	dose-dependent stimulation	–	–	–	–	–	–	–
